“And” between values parts separate entries of the source, which are not always exact repeats. Equal entries are not always repeated. “Also recorded” adds a separate entry of the source.
Experiments:
[1] = Solubility remark from ITC titration; assay type: physicochemical; conditions: ITC buffer, remark in words
Description: (§1) The DNMT2 protein was purified via size exclusion chromatography eluting in isothermal titration calorimetry (ITC) buffer (50 mM sodium phosphate pH 8.0, 300 mM NaCl, 1 mM EDTA, 2 mM β-mercaptoethanol, 0.1% polysorbate-20) and directly used for measurements.[3] All compounds were dissolved in DMSO to a concentration of 5 mM and were then diluted in ITC buffer to a final concentration of 500 μM. DNMT2 was diluted to a final concentration of 50 μM with 10% DMSO to match the ligand stocks' DMSO concentration. For the ITC measurements, a MicroCal PEAQ-ITC Automated workstation (Malvern Panalytical) with a 200 μL Hastelloy cell and an injection syringe volume of 40 μL was used. All experiments were performed in triplicates at 25 °C unless otherwise noted. For each measurement, 19 compound injections (2 μL each) with an injection speed of 0.5 μL/s were added to the reaction cell containing DNMT2. The spacing time between sequential injections was 300 s, and the stirring speed was set to 750 rpm with a reference power of 42 μW. As control experiments, ligands were titrated into ITC buffer. Data analysis and fitting were carried out using the MicroCal PEAQ-ITC Analysis Software 1.21 and plotted in GraphPad Prism 8.0.1.

[2] = molecular target: T1, DNMT2 (Homo sapiens, UniProt O14717); experiment: ^3H-based methyltransferase enzyme activity assay (^3H-SAM incorporation into tRNA^Asp); assay type: biochemical
T1 construct: Recombinant human DNMT2 (full-length); His-tag; made in house; host or cells: E. coli
T1 sequence (O14717 1-391): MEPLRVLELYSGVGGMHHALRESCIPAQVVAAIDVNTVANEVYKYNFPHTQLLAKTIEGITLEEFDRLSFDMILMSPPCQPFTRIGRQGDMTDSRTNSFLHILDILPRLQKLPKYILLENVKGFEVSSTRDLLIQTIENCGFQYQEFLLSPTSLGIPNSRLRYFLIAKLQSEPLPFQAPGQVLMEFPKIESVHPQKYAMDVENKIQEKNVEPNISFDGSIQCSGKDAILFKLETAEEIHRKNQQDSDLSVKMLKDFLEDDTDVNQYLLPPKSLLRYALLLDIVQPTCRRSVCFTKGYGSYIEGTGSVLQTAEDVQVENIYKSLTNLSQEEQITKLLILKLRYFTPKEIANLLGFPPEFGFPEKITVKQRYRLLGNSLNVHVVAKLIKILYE
Description: Enzymatic DNMT2 inhibition assays were carried out in 100 mM Tris-HCl, pH 8.0, 100 mM NH4OAc, 0.1 mM EDTA, 10 mM MgCl2, and 10 mM DTT as described previously.[3]^,[4] First, the tRNA^Asp substrate was heated to 75 °C for 5 min and cooled down to room temperature (RT) before it was added to the reaction mixture to a final concentration of 5 μM. The reaction mixture contained 250 nM DNMT2 and the ligand compounds at variable concentrations (5% DMSO). Enzymatic reactions were started by the addition of 0.9 μM SAM as a mixture of ^3H-SAM (Hartmann Analytics) resp. cold SAM (NEB) to a final activity of 0.025 μCi μL^−1. Enzyme assays were carried out for 30 min at 37 °C. As a negative control served the reaction mixture without DNMT2 and as a positive control the reaction mixture without test compound. After 30 min, aliquots of 8 μL were taken from the reaction mixture and spotted on Whatman glass microfiber filters (GF/C, 25 mm). The RNA was precipitated on the filters with 5% ice-cold TCA for 15 min. […] Scintillation was measured with a scintillation counter (TriCarb Liquid Scintillation Analyzer 4810 TR; measurement time of 1 min). For IC50-value determination, compounds were analyzed at a minimum of six different concentrations in triplicates. IC50-values were calculated, evaluated, and plotted in GraphPad Prism 8.0.1.

[3] = molecular target: T2, DNMT2 in MOLM-13 cells (Homo sapiens, UniProt O14717); experiment: Cellular thermal shift assay (CETSA); assay type: cell-based; conditions: MOLM-13, 50 μM, 16 h
T2 construct: engages DNMT2 in the MOLM-13 cellular environment, we performed cellular thermal shift assays (CETSA); endogenous in cells; host or cells: MOLM-13
T2 sequence (O14717 1-391): T1 sequence (O14717 1-391)
Description: After incubation for 16 h (37 °C, 5% CO2), the cell suspensions were collected. The cells were washed twice and then counted, followed by the addition of 1 mL PBS. The cell suspension was divided into eight parts, and then heated for 4 min at various temperatures (40, 43, 46, 49, 52, 55, 58 °C) in a PCR thermocycler. The cells were lysed through a freeze-thaw process using liquid nitrogen. The supernatant solutions were used for immunoblotting analysis. […] Proteins were separated by SDS−PAGE on 4–20% Criterion TGX Precast Protein Gels (Bio-Rad) and transferred to Amersham Protean 0.45 μm nitrocellulose membrane (Cytiva) using semi-dry transfer (25 V, 1 A, Towbin buffer). […] Subsequently, the membrane was incubated for 3 h at RT with IRDye 680RD Goat anti-Rabbit (1:1000, LICOR, 926–68071). Protein bands were visualized using a GE Healthcare Typhoon Trio biomolecular scanner, with laser excitation at 637 nm and fluorescence detection at 670 nm. The ImageLab software (Bio-Rad) was used for band quantification.

[4] = molecular target: T1, DNMT2; experiment: MST displacement assay with fluorescent FTAD probe; assay type: binding; parameters: Fnorm (MST screening): unit not given here
Description: (§2) Screening for ligand binding and evaluation of dose-response affinity profiles was performed via microscale thermophoresis (MST) as described previously.[42] The measurements were conducted with a Nanotemper Technologies Monolith NT.115 device. All samples were measured in Monolith standard capillaries at 25 °C. The acquisition mode was set to “Nano-Blue” with an excitation power of 30% and a medium MST power, while the system was controlled using the software MO.Control (version 1.6.1) and for evaluation MO.Affinity Analysis (version 2.3) was used. The samples contained 2 μM DNMT2, 100 nM FTAD (5-FAM-triazolyl-adenosyl-Dab) probe, and 1.3% DMSO in MST buffer (50 mM HEPES, 150 mM NaCl, 1 mM dithiothreitol (DTT), 0.1% PEG-8000, 0.05% polysorbate-20, pH 7.4).[42] All compounds were employed at a final concentration of 100 μM for the initial ligand screening.

[5] = molecular target: T1, DNMT2; experiment: Isothermal titration calorimetry (ITC), direct titration; assay type: binding; conditions: direct titration at 25 °C; n.b. = no enthalpy signal observable
Description: as §1

[6] = molecular target: T3, DNMT2Δ47 (Homo sapiens, UniProt O14717, DEL191-237); experiment: MST FTAD assay with deletion mutant; assay type: binding; conditions: DNMT2Δ47 2 μM, FTAD probe; read-out: affinity (MST KD) against DNMT2Δ47
T3 construct: His-tag; made in house; host or cells: E. coli (host printed only for the crystallization preparation)
T3 sequence (O14717 with tags, fused parts or gaps DEL191-237): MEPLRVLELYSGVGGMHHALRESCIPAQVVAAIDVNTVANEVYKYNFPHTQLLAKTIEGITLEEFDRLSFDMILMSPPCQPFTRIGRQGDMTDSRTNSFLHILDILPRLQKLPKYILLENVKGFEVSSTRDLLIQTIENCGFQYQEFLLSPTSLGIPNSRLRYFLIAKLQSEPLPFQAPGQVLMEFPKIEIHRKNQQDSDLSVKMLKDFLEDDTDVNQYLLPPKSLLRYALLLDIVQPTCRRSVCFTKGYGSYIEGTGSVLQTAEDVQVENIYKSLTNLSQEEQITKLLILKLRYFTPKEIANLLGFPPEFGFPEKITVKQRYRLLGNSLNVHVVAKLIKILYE
Description: as §2

[7] = Parallel artificial membrane permeation assay (PAMPA); assay type: in vitro ADME; conditions: 7 h incubation, duplicates
Description: To determine the passive permeability of selected DNMT2 ligands, a parallel artificial membrane permeation assay (PAMPA) was performed as described previously.[68] The experiment was performed in duplicates with Sigma-Aldrich MAIPNTR10 donor plates with 5 μL of an artificial membrane (1% w/v L-α-phosphatidylcholine in n-dodecane) per well. After incubation for 7 h, the acceptor solutions were evaluated by LC/MS (HP Agilent 1100 Series). The peak areas in the UV chromatogram (λ = 210 nm) were used to calculate the areas under the curve (AUCs).

[8] = molecular target: T1, DNMT2; experiment: Affinity selection-mass spectrometry (AS-MS); assay type: binding; conditions: 5 μM DNMT2, label-free
Description: Orthogonal KD-value determination for compound 3 was conducted by an affinity selection-mass spectrometry (AS-MS) assay according to Prudent et al.[43] and Simon et al.[67] Compound 3 was dissolved in DMSO (20 mM) and a dilution series in Tris buffer (25 mM Tris, 100 mM NaCl, pH 7.5) was prepared to give final ligand concentrations of 100 μM, 50 μM, 25 μM, 12.5 μM, 6.25 μM, 3.12 μM, 1.56 μM, and 0 μM. DNMT2 was diluted in Tris buffer (130 μM) and added to the dilution series to give a final concentration of 5 μM DNMT2. Zeba Spin Desalting columns 7K MWCO were used for the affinity-based separation. These columns were centrifuged at 2000g for 1 min to remove the storage buffer. 20 μL of the prepared samples were loaded to the columns, and the protein-ligand complex was eluted by centrifugation at 2000g for 2 min. The centrifuged solutions were diluted with 10 μL ACN and analyzed by LC/MS with an Agilent 1100 Series HPLC system. The data evaluation and subsequent binding affinity determination were performed with MestReNova (version 14.0.1) and GraphPad Prism 8.0.1.

[9] = ATP-quantifying cell viability assay, 48 h; assay type: cell-based; conditions: human, MOLM-13, HCT, Huh-7, MDA-MB-231 and HEK293 cells, all cell lines
[10] = system: MOLM-13 cells; experiment: Cell viability assay, doxorubicin co-treatment; assay type: cell-based; conditions: Homo sapiens; MOLM-13, doxorubicin 48 h; read-out: CC50 (only doxorubicin)
Description: Cell viability assays were conducted with MOLM-13 cells, Huh-7, MDA-MB-231, HEK293, and HCT MTase mutant cell lines (WT, knock-down DNMT2, and knock-down NSUN2) to investigate the DNMT2 inhibiting compounds’ cellular effect. Cells were cultured according to standard protocols: MOLM-13 (RPMI, 10% FBS, 1x Penicillin/Streptomycin, 37 °C, 5% CO2), Huh-7/MDA-MB-231/HEK293 (DMEM, 10% FBS, 1x Penicillin/Streptomycin, 37 °C, 5% CO2) and HCT (McCoys’s 5A Medium, 10% FBS, L-Glutamine, 1x Penicillin/Streptomycin, 37 °C, 5% CO2). Cell viability was assessed using Promega Cell Titer Glo assay kit (MOLM-13, Huh-7, MDA-MB-231, HEK293) or Lonza ViaLight Plus Cell Proliferation and Cytotoxicity BioAssay Kit (HCT cell lines). Briefly, 1000 cells were seeded in white Greiner half-area 96-well plates and incubated for 48 h with inhibitors/ligands from DMSO stocks (final: 0.1% DMSO) under standard cultivation conditions. Then, the cell titer reagent was added to each well according to the manufacturer’s protocols, and luminescence was measured using a Tecan Spark 10M plate reader (MOLM-13, Huh-7, MDA-MB-231, HEK293) or Molecular Devices FlexStation (HCT cell lines).

[11] = molecular target: T4, DNMT2-eIF4E interaction (Homo sapiens, UniProt O14717); experiment: Pull-down competition assay; assay type: binding; conditions: 100 μM sinefungin, 100 μM 16 or 10 μM tRNA^Asp
T4 construct: Recombinant human DNMT2 (full-length); host or cells: E. coli (DNMT2)
T4 sequence (P06730 whole entry partner, one chain of several): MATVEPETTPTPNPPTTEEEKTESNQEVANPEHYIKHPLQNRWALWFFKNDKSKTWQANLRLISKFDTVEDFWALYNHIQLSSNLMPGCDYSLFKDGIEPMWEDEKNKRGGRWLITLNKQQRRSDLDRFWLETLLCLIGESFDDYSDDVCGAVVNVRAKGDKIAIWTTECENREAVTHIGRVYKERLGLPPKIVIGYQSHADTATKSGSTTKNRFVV
Description: (§3) For immobilization on streptavidin beads, DNMT2 was biotinylated using the EZ-Link Sulfo-NHS-LC-Biotinylation kit. A 20-fold excess of Sulfo-NHS-LC-Biotin (10 mM in water) was added to DNMT2 and incubated for 2 h on ice. […] The biotinylation level was estimated using a HABA assay included in the kit according to the manufacturer’s protocols.
(§4) For in vitro pull-down assays, biotinylated DNMT2 was immobilized on streptavidin-coated paramagnetic beads (GenScript Streptavidin MagBeads). For this, beads were washed with PBS buffer containing 0.05% Triton X-100, and subsequently, DNMT2 (30 μg per 50 μL beads) was immobilized for 45 min at RT. As a negative control, beads were treated with a protein-free buffered solution. Beads were washed with PBS buffer, and for each sample, 5 μL beads were added to either 1.5 μg of recombinant NonO protein (Active Motif) or 3.0 μg of recombinant eIF4E protein (Cayman). Beads were incubated for 1 h at RT, and subsequently, the supernatant was removed. […] The samples were incubated for 45 min at RT, and the supernatant was treated with 2 μL 5× Laemmli buffer. […] All samples were heated to 95 °C for 10 min and analyzed via SDS-PAGE. […] Protein bands were visualized using a GE Healthcare Typhoon Trio biomolecular scanner, with laser excitation at 488 nm and fluorescence detection at 580 nm.

[12] = molecular target: T5, DNMT2-NonO interaction (Homo sapiens, UniProt O14717); experiment: Pull-down competition assay; assay type: binding; conditions: 100 μM SFG, 100 μM 16 or 10 μM tRNA^Asp
T5 construct: Recombinant human DNMT2 (full-length); host or cells: E. coli (DNMT2)
T5 sequence (O14717 1-391): T1 sequence (O14717 1-391)
T5 sequence (Q15233 1-471 partner): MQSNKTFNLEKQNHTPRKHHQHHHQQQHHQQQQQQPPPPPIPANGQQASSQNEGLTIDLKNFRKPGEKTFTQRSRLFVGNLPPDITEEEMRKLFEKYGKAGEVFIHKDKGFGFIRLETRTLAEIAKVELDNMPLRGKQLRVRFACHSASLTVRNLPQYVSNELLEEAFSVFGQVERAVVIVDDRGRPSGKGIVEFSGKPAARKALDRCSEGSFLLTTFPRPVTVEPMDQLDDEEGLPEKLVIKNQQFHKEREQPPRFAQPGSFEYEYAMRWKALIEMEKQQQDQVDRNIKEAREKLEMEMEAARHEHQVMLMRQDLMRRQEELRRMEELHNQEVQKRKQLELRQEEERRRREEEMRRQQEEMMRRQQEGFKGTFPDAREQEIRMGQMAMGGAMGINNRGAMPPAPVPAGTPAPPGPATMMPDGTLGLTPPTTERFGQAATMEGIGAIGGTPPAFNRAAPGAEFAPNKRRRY
Description: as §3, §4

CNC(=O)[C@@H](Nc1nc(N2CCN(c3c(C)cccc3C)CC2)nc(N(C)c2cccc(C)c2)n1)[C@@H](C)OC(C)(C)C [Compound 2]
solubility [1]: low solubility

CCc1ccc(C(=O)NCC2(C(=O)NC(CC(=O)NCC(=O)NC)Cc3c[nH]c4ccccc34)CC2)cc1 (stereo not drawn) [Compound 3]
IC50 [2]: 38.9 ± 6.9 µM
thermal stabilization of DNMT2 (CETSA) [3]: no thermal stabilization occurred
FTAD displacement in the MST assay ([4]; DEL hits, result in words): quantitative FTAD displacement
Kd ([4]; FTAD probe 100 nM, 2 μM DNMT2, n.b. = no thermophoresis shift observable): 48 µM and 48.2 µM
Fnorm (% displ.): FTAD displacement ([4]; ligand 100 μM, FTAD probe): 53%
Fnorm (MST screening) ([4]; ligand 100 μM, FTAD probe): 912.1
Kd [5]: 5.3 µM and 5.31 µM
Kd [6]: 102 µM
Papp (PAMPA) [7]: failed to pass through the artificial membrane; also recorded: below detection limit
Kd [8]: 8.4 ± 2.2 µM

Nc1ncn([C@@H]2O[C@H](CO)[C@@H](O)[C@H]2O)c(=O)n1 [azacitidine]
CC50 at 48 h [9]: < 10 µM

COc1cccc2c1C(=O)c1c(O)c3c(c(O)c1C2=O)C[C@@](O)(C(=O)CO)C[C@@H]3O[C@H]1C[C@H](N)[C@H](O)[C@H](C)O1 [doxorubicin]
CC50 [10]: 0.045 ± 0.003 µM

Nc1ncnc2c1ncn2[C@@H]1O[C@H](C[C@@H](N)CC[C@H](N)C(=O)O)[C@@H](O)[C@H]1O [sinefungin]
displacement of eIF4E from immobilized DNMT2 [11]: neither NonO nor eIF4E could be displaced
displacement of NonO from immobilized DNMT2 [12]: NonO could not be displaced

Source: article PMC12396291, “DNA-encoded library screening uncovers potent DNMT2 inhibitors targeting a cryptic allosteric binding site” (iScience, 2025)
